# Reference: paper PMC6514670, “Field-Based Affinity Optimization of a Novel Azabicyclohexane Scaffold HIV-1 Entry Inhibitor” (Molecules, 2019)
# What was measured:
# [1] = system: HIV-1JRCSF Env pseudotyped HIV-1; assay: Single-round infection assay, JRCSF Env pseudotyped virus; settings: Human immunodeficiency virus 1, U87/CD4/CCR5, 48 h, read-out: IC50 JRCSF
# [2] = system: HIV-1B41, HIV-1HxBc2, HIV-1JRCSF, HIV-1JRFL, and HIV-1YU-2 Env pseudotyped HIV-1; assay: Single-round infection assay, summary over the five Env pseudotypes; settings: Human immunodeficiency virus 1, read-out: Median IC50
# [3] = system: HIV-1YU-2 Env pseudotyped HIV-1; assay: Single-round infection assay, YU-2 Env pseudotyped virus; settings: Human immunodeficiency virus 1, U87/CD4/CCR5, 48 h, read-out: IC50 YU-2
# [4] = system: HIV-1HxBc2 Env pseudotyped HIV-1; assay: Single-round infection assay, HxBc2 Env pseudotyped virus; settings: Human immunodeficiency virus 1, U87.CD4.CXCR4, 48 h, read-out: IC50 HxBc2
# [5] = system: HIV-1B41 Env pseudotyped HIV-1; assay: Single-round infection assay, B41 Env pseudotyped virus; settings: Human immunodeficiency virus 1, U87/CD4/CCR5, 48 h, read-out: IC50 B41
# U87.CD4.CCR5/CXCR4 cells = assay: Cellular toxicity (Cell Counting Kit-8); assay type: cell-based, Human; settings: CC50 / median IC50
# Procedure: (§1) The viability of the U87.CD4.CCR5/CXCR4 cells was determined using the Cell Counting Kit-8 cell proliferation and cytotoxicity assay (Dojindo Molecular Technologies, Rockville, MD, USA) per the manufacturer’s instructions. U87.CD4.CCR5/CXCR4 cells (1.2 × 10^4 cells/well) were seeded in 96-well tissue culture plates (Olympus Plastics, San Diego, CA, USA). After 24 h, cells were treated with compound (0.1–1000 µM) or DMSO (Sigma) for 48 h at 37 °C. Subsequently, 10 µL of the CCK-8 solution was added to each well and incubated for 4 h at 37 °C. Following the 4 h incubation, the absorbance at 450 nm was measured in a Multiskan™ GO Microplate Spectrophotometer (Thermo Scientific). Untreated cells were used as a background control and 0.1% SDS treated cells were used as a positive control.
# [6] = Cellular toxicity (Cell Counting Kit-8); assay type: cell-based, Human; settings: human, U87.CD4.CCR5/CXCR4 cells; 48 h, CCK-8, 0.1–1000 µM
# Procedure: as §1
# [7] = system: HIV-1JRFL Env pseudotyped HIV-1; assay: Single-round infection assay, JRFL Env pseudotyped virus; settings: Human immunodeficiency virus 1, U87/CD4/CCR5, 48 h, read-out: IC50 JRFL
# [8] = molecular target: B41 SOSIP.664 gp140 trimer (Human immunodeficiency virus type 1, UniProt B3UES2, A505C/E513R/I563P/INS515RR/K514R/T609C); assay type: binding, HIV-1
SMILES,IC50 [1] [nM],IC50 [2] [nM],IC50 [3] [nM],IC50 [4] [nM],IC50 [5] [nM],Therapeutic Index (CC50/IC50) (U87.CD4.CCR5/CXCR4 cells),CC50 at 48 h [6] [µM],IC50 [7] [nM],ka [8],kd [8],improvement in KD (affinity) in comparison to parental SC28 [8] [fold],"SPR surface saturation ([8]; 12.5 µM and 6.25 µM, 13000 RUs trimer immobilized, theoretical Rmax 41 RUs)",increase of ka parameter in comparison to SC28 ([8]; SPR) [factor]
"C=C(C(=O)NC1C2CN(C(=O)c3ccccc3)CC21)n1ccc2c(-n3cnc(C)n3)nc3ccnn3c21 (stereo not shown) [SC52, N-(3-benzoyl-3-azabicyclo[3.1.0]hexan-6-yl)-2-(5-(3-methyl-1H-1,2,4-triazol-1-yl)-8H-pyrazolo[1,5-a]pyrrolo[3,2-e]pyrimidin-8-yl)acrylamide]",2020 ± 250,1060 ± 668,1350 ± 440,440 ± 170,430 ± 100,8.65,9.2 ± 1.1,,,,,,
"Nc1nc(-c2ccc(F)c3c(C(=O)C(=O)NC4C5CN(C(=O)c6ccccc6)CC54)c[nH]c23)no1 (stereo not shown) [SC55, 2-(7-(5-amino-1,2,4-oxadiazol-3-yl)-4-fluoro-1H-indol-3-yl)-N-(3-benzoyl-3-azabicyclo[3.1.0]hexan-6-yl)-2-oxoacetamide]",450 ± 350,960 ± 590,1150 ± 810,730 ± 560,2020 ± 810,75.85,73 ± 14,450 ± 330,,,,,
CNC(=O)c1ncc(OC)c2c(C(=O)C(=O)NC3C4CN(C(=O)c5ccccc5)CC43)c[nH]c12 (stereo not shown) [SC49],,45000 ± 15000,57200 ± 26500,62000 ± 1400,26000 ± 19000,7.31,326 ± 81,33300 ± 11600,9.49 ± 1.6 × 10^2 M^−1s^−1,3.43 ± 0.36 × 10^−2 s^−1,,,
O=C(NC1C2CN(C(=O)c3ccccc3)CC21)C(=O)c1c[nH]c2c(-c3cccnc3)ncc(F)c12 (stereo not shown) [SC50],28900 ± 5620,18000 ± 9000,22600 ± 4200,6900 ± 5200,7100 ± 4200,6.63,120 ± 18,24300 ± 6200,,,,,
COc1cnc(-n2cnc(C)n2)c2[nH]cc(C(=O)C(=O)N3CC(CCC(=O)c4ccccc4)C3)c12 [SC15],,,,,,,,,3.01 ± 0.188 × 10^5 M^−1s^−1,5.44 ± 0.677 × 10^−3 s^−1,,,
"COc1ccc(-c2noc(N)n2)c2[nH]cc(C(=O)C(=O)NC3C4CN(C(=O)c5ccccc5)CC43)c12 (stereo not shown) [SC56, 2-(7-(5-Amino-1,2,4-oxadiazol-3-yl)-4-methoxy-1H-indol-3-yl)-N-(3-benzoyl-3-azabicyclo[3.1.0]hexan-6-yl)-2-oxoacetamide]",46 ± 9,69.8 ± 45,110 ± 49,11 ± 3,51 ± 8,1344.71,94 ± 10,130 ± 15,1.22 ± 0.067 × 10^7 M^−1s^−1,6.39 ± 0.31 × 10^−3 s^−1,1000,saturate the surface,1000
COc1cnc(-n2cnc(C)n2)c2[nH]cc(C(=O)C(=O)NC3C4CN(C(=O)c5ccccc5)CC43)c12 (stereo not shown) [SC28],26 ± 9,150 ± 170,480 ± 50,21 ± 5,35 ± 6.2,1291.21,190 ± 54,170 ± 50,1.39 ± 0.14 × 10^4 M^−1s^−1,6.99 ± 0.43 × 10^−3 s^−1,,,
COc1cnc(-n2cnc(C)n2)c2[nH]cc(C(=O)C(=O)N3CC4CN(C(=O)c5ccccc5)CC4C3)c12 (stereo not shown) [SC11],,,,,,,,,3.83 ± 1.12 × 10^3 M^−1s^−1,5.02 ± 2.67 × 10^−4 s^−1,,,
COc1cnc(-n2cnc(C)n2)c2[nH]cc(C(=O)C(=O)N3CC=C(CNC(=O)c4ccccc4)CC3)c12 [SC45],,,,,,,,,1.38 ± 0.045 × 10^4 M^−1s^−1,1.52 ± 0.0294 × 10^−2 s^−1,,,
